Measurements from patent publication US10633397B2, “Substituted polycyclic pyridone derivatives and prodrugs thereof” (priority 2015, dated 2020).

How the values were obtained:
[1] = in vivo; settings: oral vs intravenous administration, mice or SD rats, read-out: bioavailability (BA)
Procedure: Materials and Methods for Experiments to Evaluate Oral Absorption
(1) Experimental animals: mice or SD rats were used.
(2) Rearing condition: mice or SD rats were allowed free access to solid feed and sterilized tap water.
(3) Setting of dosage and grouping: Oral administration and intravenous administration were performed with the predetermined dosage. Grouping was set as below. (Dosage was changed per compound)
Oral administration 1 to 30 mg/kg (n=2 to 3)
Intravenous administration 0.5 to 10 mg/kg (n=2 to 3)
(4) Preparation of administration solutions: Oral administration was performed as solution or suspension. Intravenous administration was performed after solubilization.
(5) Routes of administration: Oral administration was performed mandatory into the stomach by oral sonde. […]
(6) Evaluation items: Blood was collected serially and concentration of a compound of the present invention in plasma was measured by LC/MS/MS.
(7) Statistical analysis: About transition of concentration of a compound of the present invention in plasma, the area under the plasma concentration versus time curve (AUC) was calculated by non-linear least-squares method program, WinNonlin (a registered trademark), and bioavailability (BA) of a compound of the present invention was calculated from AUCs of the oral administration group and the intravenous administration group. […]

[2] = Plasma concentration after oral administration of prodrug Compound II-6; assay type: in vivo; settings: after oral administration of Compound II-6 to rat under non-fasting conditions, all plasma samples
From the text: FIG. 1 is a result of measuring the plasma concentration of compound III-2, after oral administration of prodrug Compound II-6, the parent compound of which is Compound III-2, to rat under non-fasting conditions.
FIG. 2 is a result of measuring the plasma concentration of compound II-6, after oral administration of prodrug Compound II-6, the parent compound of which is Compound III-2, to rat under non-fasting conditions.
FIGS. 1 and 2 show a result of measuring the plasma concentration of Compound III-2 and Compound II-6 after oral administration of prodrug Compound II-6, the parent compound of which is Compound III-2, to rat under non-fasting conditions.
Therefore, prodrug Compound II-6, the parent compound of which is Compound III-2 is found to have changed promptly to Compound III-2 in vivo after administration (see FIG. 2).

[3] = target: cap-dependent endonuclease (RNP fraction, PB1-PB2-PA complex) (Influenza A virus, UniProt P15659); experiment: Measurement of cap-dependant endonuclease (CEN) inhibitory activity; assay type: biochemical; settings: RNP from A/WSN/33 virus, room temperature 60 minutes; read-out: CEN_IC50
[4] = tested on: influenza virus; experiment: CPE inhibitory effect confirming assay; assay type: cell-based; settings: unidentified influenza virus, 72 h, read-out: CPE_EC50

Structure (SMILES): COC(=O)OCOc1c2n(ccc1=O)N([C@@H]1c3ccccc3SCc3c1ccc(F)c3F)[C@@H]1COCCN1C2=O [II-6]
- bioavailability [1]: 14.9%
- concentration of Compound II-6 in plasma [2]: a determination limit or less

Structure (SMILES): CC1(C)CCN2C(=O)c3c(O)c(=O)ccn3N([C@H]3c4ccc(F)cc4CSc4ccccc43)[C@@H]2C1 [III-47]
- IC50 [3]: 2.25 nM
- EC50 [4]: 2.53 nM

Structure (SMILES): O=C1c2c(O)c(=O)ccn2N([C@@H]2c3ccccc3SCc3cccc(F)c32)[C@@H]2CC3(CCN12)CC3 [III-48]
- IC50 [3]: 3.49 nM
- EC50 [4]: 3.57 nM

Structure (SMILES): C[C@@H]1CCN2C(=O)c3c(O)c(=O)ccn3N([C@@H]3c4ccccc4SCc4cccc(F)c43)[C@@H]2C1 [III-49]
- IC50 [3]: 6.79 nM
- EC50 [4]: 4.17 nM

Structure (SMILES): C[C@@H]1CCN2C(=O)c3c(O)c(=O)ccn3N([C@H]3c4ccc(F)cc4CSc4ccccc43)[C@@H]2C1 [III-50]
- IC50 [3]: 2.55 nM
- EC50 [4]: 4.36 nM

Structure (SMILES): C[C@H]1CN2C(=O)c3c(O)c(=O)ccn3N([C@@H]3c4ccccc4SCc4c3ccc(F)c4F)[C@@H]2CO1 [III-51]
- IC50 [3]: 2.22 nM
- EC50 [4]: 2.58 nM

Structure (SMILES): C[C@H]1CN2C(=O)c3c(O)c(=O)ccn3N([C@H]3c4ccc(F)cc4CSc4ccccc43)[C@@H]2CO1 [III-52]
- IC50 [3]: 3.62 nM
- EC50 [4]: 3.28 nM

Structure (SMILES): O=C1c2c(O)c(=O)ccn2N([C@@H]2c3ccccc3SCc3cccc(F)c32)[C@@H]2CCCCN12 [III-53]
- IC50 [3]: 2.46 nM
- EC50 [4]: 3 nM

Structure (SMILES): O=C1c2c(O)c(=O)ccn2N([C@H]2c3ccc(F)cc3CSc3ccccc32)[C@@H]2CC3(CCN12)CC3 [III-55]
- IC50 [3]: 2.13 nM
- EC50 [4]: 3.45 nM

Structure (SMILES): O=C1c2c(O)c(=O)ccn2N(C2c3ccccc3CCc3ccccc32)[C@@H]2COCCN12 [III-56]
- IC50 [3]: 6.64 nM
- EC50 [4]: 4.99 nM

Structure (SMILES): O=C1c2c(O)c(=O)ccn2N([C@H]2c3ccc(F)cc3CSc3ccccc32)[C@@H]2C[C@@H](C(F)(F)F)CCN12 [III-57]
- IC50 [3]: 4.27 nM
- EC50 [4]: 3.47 nM

Structure (SMILES): C[C@@H]1CC[C@@H]2N(C1)C(=O)c1c(O)c(=O)ccn1N2[C@H]1c2ccc(F)cc2CSc2ccccc21 [III-58]
- IC50 [3]: 2.65 nM
- EC50 [4]: 3.13 nM

Structure (SMILES): O=C1c2c(O)c(=O)ccn2N([C@@H]2c3ccccc3SCc3c2ccc(F)c3F)[C@@H]2CCCCN12 [III-59]
- IC50 [3]: 0.57 nM
- EC50 [4]: 3.11 nM
